Results published in patent publication US8372967B2, “Compounds and methods for modulating expression of GCCR” (Isis Pharmaceuticals, Inc., priority 2006, dated 2013).
Strand notation (5' to 3'): a small letter for the sugar, then the base; units joined by * are phosphorothioate-linked, units joined directly phosphodiester-linked; [ ] holds rarer units or linkages, { } end groups; capitals alone tell only the bases. e = 2'-O-(2-methoxyethyl) (MOE); [5mC] = 5-methylcytosine; d = 2'-deoxy (DNA)

What was measured:
Type in all cases: in vivo, mouse
[1] = ALT & AST levels and toxic effects, GCGR study (Table 32); settings: C57/BL6 mice, pre-treatment bleed
Description: (§1) Eight-week old male C57/BL6 mice (Jackson Laboratory, Bar Harbor, Me.) were administered a single dose of GCGR oligonucleotide by intraperitoneal injection at a concentration of […]. Each dose group consisted of four animals. Shown in Table 31 are the sequences, motifs and conjugates of the GCGR antisense compounds used in this study. Bolded residues indicate 2′-O-methoxyethyl (2′-MOE) moieties. All compounds comprise phosphorothioate internucleoside linkages throughout and each cytosine is replaced with 5-methylcytosine. ISIS 386626, ISIS 386627 and ISIS 386628 further comprise a C16 conjugate group attached to the 2′-O position of the sugar via a diamide linkage (2′-OCH2C(═O)N(H)(CH2)4N(H)C(═O)—(CH2)15CH3). GCGR antisense compounds target published GCGR sequences, including Genbank® Accession No. BC031885.1 (SEQ ID NO: 7).
(§2) Mice were sacrificed 48 hours following injection to determine serum transaminase levels (Table 32); liver, white adipose tissue (WAT), spleen and kidney weight (Table 33); cholesterol, triglyceride and glucose levels (Table 34); GCGR mRNA levels (Tables 35-41); and full-length and total oligonucleotide concentration in liver and kidney (Table 42). Endpoints were assessed using methods described herein and well known to those of ordinary skill in the art. Data is included from a pre-treatment bleed (Pre-Bleed) and post-treatment bleed (Post-Bleed).

[2] = test system: GCGR mRNA; assay: GCGR mRNA levels in liver, C57/BL6 mice, single i.p. dose (Tables 35-41)
Description: Prior to quantitative PCR analysis, primer-probe sets specific to the target gene being measured were evaluated for their ability to be “multiplexed” with a GAPDH amplification reaction. After isolation the RNA is subjected to sequential reverse transcriptase (RT) reaction and real-time PCR, both of which are performed in the same well. RT and PCR reagents were obtained from Invitrogen Life Technologies (Carlsbad, Calif.). […] The RT reaction was carried out by incubation for 30 minutes at 48° C. Following a 10 minute incubation at 95° C. to activate the PLATIN 9M® Taq, 40 cycles of a two-step PCR protocol were carried out: 95° C. for 15 seconds (denaturation) followed by 60° C. for 1.5 minutes (annealing/extension).
170 μL of RiboGreen® working reagent (RiboGreen® reagent diluted 1:350 in 10 mM Tris-HCl, 1 mM EDTA, pH 7.5) was pipetted into a 96-well plate containing 30 μL purified cellular RNA. The plate was read in a CytoFluor® 4000 (PE Applied Biosystems) with excitation at 485 nm and emission at 530 nm.
as §1, §2
(§3) To determine whether the phenotypic changes shown above correlated with a decrease in GCGR mRNA, treated animals were evaluated for levels of target mRNA in liver by real time PCR according to methods described herein. Tables 35 to 41 show results from direct comparisons of the antisense compounds targeting GCGR nucleic acid for their effect on target expression. Results are expressed as percent of saline control.

[3] = Total and full-length antisense compound concentrations in liver and kidney, GCGR study (Table 42); settings: 48 h after single i.p. dose
Description: as §1, §2
Treatment with the 2-10-2 MOE gapmers led to a significant dose-dependent decrease in GCGR mRNA expression. […] To determine whether the observed increase in efficiency with the short antisense compounds is due to an increase in antisense compound accumulation, full-length and total antisense compound concentration in the liver and kidney were determined.

[4] = Triglyceride, cholesterol and glucose levels, pre-bleed and post-bleed, GCGR study (Table 34); design: Triglyceride (TRIG) Pre-Bleed / Triglyceride (TRIG) Post-Bleed / Cholesterol (CHOL) Pre-Bleed / Cholesterol (CHOL) Post-Bleed / Glucose Pre-Bleed / Glucose Post-Bleed: unit not given here; settings: for Cholesterol (CHOL) Pre-Bleed / Triglyceride (TRIG) Pre-Bleed: pre-treatment bleed; for Cholesterol (CHOL) Post-Bleed / Triglyceride (TRIG) Post-Bleed: post-treatment bleed
[5] = test system: GCGR mRNA; assay: GCGR mRNA levels in liver and estimated ED50, C57/BL6 mice, single i.p. dose of MOE and methyleneoxy BNA gapmers (Tables 44, 45); settings: liver
Description: Eight-week old male C57/BL6 mice (Jackson Laboratory, Bar Harbor, Me.) were administered a single dose of GCGR antisense compound by intraperitonel (i.p.) injection at a concentration of 10, 3.2, 1, and 0.32 μmol·kg. Each dose group consisted of four animals. Shown in Table 43 are the sequences, motifs and conjugates of the GCGR antisense compounds used in this study. Bolded residues indicate 2′-O-methoxyethyl (2′-MOE) modifications and the italicized residues indicate methyleneoxy (4′-CH2—O-2′) BNA modifications. All antisense compounds comprise phosphorothioate internucleoside linkages throughout and each cytosine is replaced with 5-methylcytosine. GCGR antisense compounds target published GCGR nucleic acids, including Genbank Accession No. BC031885.1 (SEQ ID NO: 7).
as §3, with “by RT,” for “by”, “Table 44” for “Tables 35 to 41”

148364 (antisense eT*eG*e[5mC]*eA*e[5mC]*dT*dT*dT*dG*dT*dG*dG*dT*dA*d[5mC]*e[5mC]*eA*eA*eG*eG) [compound 148364]
ALT Pre-Bleed ([1]; dose group 6.25 mg/kg): 28 IU/L
AST Pre-Bleed ([1]; dose group 6.25 mg/kg): 47 IU/L
ALT Pre-Bleed ([1]; dose group 12.5 mg/kg): 23 IU/L
AST Pre-Bleed ([1]; dose group 12.5 mg/kg): 44 IU/L
ALT Pre-Bleed ([1]; dose group 25 mg/kg): 26 IU/L
AST Pre-Bleed ([1]; dose group 25 mg/kg): 42 IU/L
ALT Pre-Bleed ([1]; dose group 50 mg/kg): 24 IU/L
AST Pre-Bleed ([1]; dose group 50 mg/kg): 40 IU/L
GCGR mRNA levels ([2]; 6.25 mg/kg, Table 35 comparison ISIS 148364 & ISIS 386626): 62% of saline control
GCGR mRNA levels ([2]; 6.25 mg/kg, Table 36 comparison ISIS 148364 & ISIS 386627): 86% of saline control
GCGR mRNA levels ([2]; 6.25 mg/kg, Table 37 comparison ISIS 148364 & ISIS 386593): 86% of saline control
GCGR mRNA levels ([2]; 6.25 mg/kg, Table 38 comparison ISIS 148364 & ISIS 386628): 101% of saline control
GCGR mRNA levels ([2]; 6.25 mg/kg, Table 39 comparison ISIS 148364 & ISIS 386594): 96% of saline control
GCGR mRNA levels ([2]; 12.5 mg/kg, Table 35 comparison ISIS 148364 & ISIS 386626): 87% of saline control
GCGR mRNA levels ([2]; 12.5 mg/kg, Table 36 comparison ISIS 148364 & ISIS 386627): 105% of saline control
GCGR mRNA levels ([2]; 12.5 mg/kg, Table 37 comparison ISIS 148364 & ISIS 386593): 105% of saline control
GCGR mRNA levels ([2]; 12.5 mg/kg, Table 38 comparison ISIS 148364 & ISIS 386628): 98% of saline control
GCGR mRNA levels ([2]; 12.5 mg/kg, Table 39 comparison ISIS 148364 & ISIS 386594): 102% of saline control
GCGR mRNA levels ([2]; 25 mg/kg, Table 35 comparison ISIS 148364 & ISIS 386626): 79% of saline control
GCGR mRNA levels ([2]; 25 mg/kg, Table 36 comparison ISIS 148364 & ISIS 386627): 87% of saline control
GCGR mRNA levels ([2]; 25 mg/kg, Table 37 comparison ISIS 148364 & ISIS 386593): 74% of saline control
GCGR mRNA levels ([2]; 25 mg/kg, Table 38 comparison ISIS 148364 & ISIS 386628): 77% of saline control
GCGR mRNA levels ([2]; 25 mg/kg, Table 39 comparison ISIS 148364 & ISIS 386594): 98% of saline control
GCGR mRNA levels ([2]; 50 mg/kg, Table 35 comparison ISIS 148364 & ISIS 386626): 36% of saline control
GCGR mRNA levels ([2]; 50 mg/kg, Table 36 comparison ISIS 148364 & ISIS 386627): 63% of saline control
GCGR mRNA levels ([2]; 50 mg/kg, Table 37 comparison ISIS 148364 & ISIS 386593): 56% of saline control
GCGR mRNA levels ([2]; 50 mg/kg, Table 38 comparison ISIS 148364 & ISIS 386628): 42% of saline control
GCGR mRNA levels ([2]; 50 mg/kg, Table 39 comparison ISIS 148364 & ISIS 386594): 59% of saline control
Full-length Antisense Compound Concentration Kidney ([3]; kidney): 58 µg/g
Total Antisense Compound Concentration Kidney ([3]; kidney): 90 µg/g
Full-length Antisense Compound Concentration Liver ([3]; liver): 46 µg/g
Total Antisense Compound Concentration Liver ([3]; liver): 54 µg/g
Cholesterol (CHOL) Pre-Bleed ([4]; 6.25 mg/kg group): 86
Triglyceride (TRIG) Pre-Bleed ([4]; 6.25 mg/kg group): 86
Cholesterol (CHOL) Post-Bleed ([4]; 6.25 mg/kg single i.p.): 89
Triglyceride (TRIG) Post-Bleed ([4]; 6.25 mg/kg single i.p.): 162
Cholesterol (CHOL) Pre-Bleed ([4]; 12.5 mg/kg group): 85
Triglyceride (TRIG) Pre-Bleed ([4]; 12.5 mg/kg group): 106
Cholesterol (CHOL) Post-Bleed ([4]; 12.5 mg/kg single i.p.): 89
Triglyceride (TRIG) Post-Bleed ([4]; 12.5 mg/kg single i.p.): 179
Cholesterol (CHOL) Pre-Bleed ([4]; 25 mg/kg group): 83
Triglyceride (TRIG) Pre-Bleed ([4]; 25 mg/kg group): 115
Cholesterol (CHOL) Post-Bleed ([4]; 25 mg/kg single i.p.): 96
Triglyceride (TRIG) Post-Bleed ([4]; 25 mg/kg single i.p.): 200
Cholesterol (CHOL) Pre-Bleed ([4]; 50 mg/kg group): 81
Triglyceride (TRIG) Pre-Bleed ([4]; 50 mg/kg group): 110
Cholesterol (CHOL) Post-Bleed ([4]; 50 mg/kg single i.p.): 94
Triglyceride (TRIG) Post-Bleed ([4]; 50 mg/kg single i.p.): 177
GCGR mRNA levels ([5]; 0.32 μmol/kg single i.p.): 105% of saline control
GCGR mRNA levels ([5]; 1 μmol/kg single i.p.): 106% of saline control
GCGR mRNA levels ([5]; 3.2 μmol/kg single i.p.): 73% of saline control
GCGR mRNA levels ([5]; 10 μmol/kg single i.p.): 38% of saline control
